Laboratory results taken from ChEMBL document CHEMBL4680217, “Discovery of PROTAC BCL-X degraders as potent anticancer agents with low on-target platelet toxicity” (Eur J Med Chem, 2020).
Activity calls are given as the source filed them. The rule behind the calls is not given here.

What was measured:
[1] = molecular target: von Hippel-Lindau disease tumor suppressor/Bcl-2-like protein 1 (Homo sapiens, UniProt Q07817+P40337); assay: Protac activity at VHL/BCL-XL in human MOLT-4 cells assessed as induction of BCL-XL degradation by measuring remaining BCL-XL level at 100 nM measured after 16 hrs by immunoblotting analysis relative to control; type: cell-based
Chain of von Hippel-Lindau disease tumor suppressor/Bcl-2-like protein 1 (P40337 whole entry, looked up): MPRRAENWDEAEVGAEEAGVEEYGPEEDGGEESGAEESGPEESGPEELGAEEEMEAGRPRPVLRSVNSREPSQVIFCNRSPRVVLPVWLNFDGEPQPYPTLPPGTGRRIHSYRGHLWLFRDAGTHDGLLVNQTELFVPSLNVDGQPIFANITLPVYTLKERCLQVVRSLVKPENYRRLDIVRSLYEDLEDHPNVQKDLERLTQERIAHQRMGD
Chain of von Hippel-Lindau disease tumor suppressor/Bcl-2-like protein 1 (Q07817 whole entry, looked up): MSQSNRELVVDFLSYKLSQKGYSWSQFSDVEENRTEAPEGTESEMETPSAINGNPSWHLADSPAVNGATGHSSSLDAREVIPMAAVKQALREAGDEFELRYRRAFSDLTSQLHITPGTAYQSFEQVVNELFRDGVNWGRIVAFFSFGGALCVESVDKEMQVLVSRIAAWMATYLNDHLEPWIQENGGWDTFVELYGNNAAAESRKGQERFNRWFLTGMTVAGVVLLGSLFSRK

[2] = molecular target: von Hippel-Lindau disease tumor suppressor/Apoptosis regulator Bcl-2 (Homo sapiens) (UniProt P10415+P40337); assay: Protac activity at VHL/BCL2 in human MOLT-4 cells assessed as induction of BCL2 degradation at 100 nM measured after 16 hrs by immunoblotting analysis; type: cell-based
Chain of von Hippel-Lindau disease tumor suppressor/Apoptosis regulator Bcl-2 (Homo sapiens) (P10415 whole entry, looked up): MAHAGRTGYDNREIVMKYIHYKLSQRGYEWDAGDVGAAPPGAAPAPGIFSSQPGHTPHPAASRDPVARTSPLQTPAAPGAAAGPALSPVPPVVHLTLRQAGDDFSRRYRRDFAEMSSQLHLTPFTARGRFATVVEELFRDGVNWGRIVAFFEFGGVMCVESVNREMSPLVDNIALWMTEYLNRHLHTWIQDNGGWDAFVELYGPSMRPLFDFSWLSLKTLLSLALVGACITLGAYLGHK
Chain of von Hippel-Lindau disease tumor suppressor/Apoptosis regulator Bcl-2 (Homo sapiens) (P40337 whole entry, looked up): as the sequence (P40337 whole entry, looked up) above

MOLT-4 = assay: Antiproliferative activity against human MOLT-4 cells assessed as reduction in cell viability measured after 48 hrs by MTS assay; type: functional, cell-based; settings: MOLT-4, 48 h
[3] = molecular target: Protein cereblon/Apoptosis regulator Bcl-2 (Homo sapiens) (UniProt P10415+Q96SW2); assay: Protac activity at CRBN/BCL2 in human MOLT-4 cells assessed as induction of BCL2 degradation at 50 nM measured after 16 hrs by immunoblotting analysis; type: cell-based
Chain of Protein cereblon/Apoptosis regulator Bcl-2 (Homo sapiens) (P10415 whole entry, looked up): as the sequence (P10415 whole entry, looked up) above
Chain of Protein cereblon/Apoptosis regulator Bcl-2 (Homo sapiens) (Q96SW2 whole entry, looked up): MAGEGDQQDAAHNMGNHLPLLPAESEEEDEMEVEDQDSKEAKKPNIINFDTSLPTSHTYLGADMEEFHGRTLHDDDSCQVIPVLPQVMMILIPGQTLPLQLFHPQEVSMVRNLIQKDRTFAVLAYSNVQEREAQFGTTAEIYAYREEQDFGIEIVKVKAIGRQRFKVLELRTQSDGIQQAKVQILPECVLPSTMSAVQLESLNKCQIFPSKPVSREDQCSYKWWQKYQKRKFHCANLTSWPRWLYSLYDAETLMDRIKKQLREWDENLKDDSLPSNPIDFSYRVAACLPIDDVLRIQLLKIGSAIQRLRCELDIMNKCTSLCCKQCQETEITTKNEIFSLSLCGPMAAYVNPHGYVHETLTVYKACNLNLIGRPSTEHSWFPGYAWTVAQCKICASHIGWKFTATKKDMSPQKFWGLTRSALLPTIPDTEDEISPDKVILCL

[4] = molecular target: Protein cereblon/Bcl-2-like protein 1 (Homo sapiens, UniProt Q07817+Q96SW2); assay: Protac activity at CRBN/BCL-XL in human MOLT-4 cells assessed as induction of BCL-XL degradation by measuring remaining BCL-XL level at 50 nM measured after 16 hrs by immunoblotting analysis relative to control; type: cell-based
Chain of Protein cereblon/Bcl-2-like protein 1 (Q07817 whole entry, looked up): as the sequence (Q07817 whole entry, looked up) above
Chain of Protein cereblon/Bcl-2-like protein 1 (Q96SW2 whole entry, looked up): as the sequence (Q96SW2 whole entry, looked up) above

Activity [1] [%]	Activity [2]	IC50 (MOLT-4) [nM]	Activity [3]	Activity [4] [%]	Structure (SMILES)
32	inactive	108	–	–	Cc1ncsc1-c1ccc([C@H](C)NC(=O)[C@@H]2C[C@@H](O)CN2C(=O)[C@@H](NC(=O)CCCCCCC(=O)N2CCN(CC[C@H](CSc3ccccc3)Nc3ccc(S(=O)(=O)NC(=O)c4ccc(N5CCN(CC6=C(c7ccc(Cl)cc7)CCC(C)(C)C6)CC5)cc4)cc3S(=O)(=O)C(F)(F)F)CC2)C(C)(C)C)cc1
79	inactive	512	–	–	Cc1ncsc1-c1ccc([C@H](C)NC(=O)[C@@H]2C[C@@H](O)CN2C(=O)[C@@H](NC(=O)COCCOCC(=O)N2CCN(CC[C@H](CSc3ccccc3)Nc3ccc(S(=O)(=O)NC(=O)c4ccc(N5CCN(CC6=C(c7ccc(Cl)cc7)CCC(C)(C)C6)CC5)cc4)cc3S(=O)(=O)C(F)(F)F)CC2)C(C)(C)C)cc1
55	inactive	914	–	–	Cc1ncsc1-c1ccc([C@H](C)NC(=O)[C@@H]2C[C@@H](O)CN2C(=O)[C@@H](NC(=O)CCOCCOCCN2CCN(CC[C@H](CSc3ccccc3)Nc3ccc(S(=O)(=O)NC(=O)c4ccc(N5CCN(CC6=C(c7ccc(Cl)cc7)CCC(C)(C)C6)CC5)cc4)cc3S(=O)(=O)C(F)(F)F)CC2)C(C)(C)C)cc1
62	inactive	324	–	–	Cc1ncsc1-c1ccc([C@H](C)NC(=O)[C@@H]2C[C@@H](O)CN2C(=O)[C@@H](NC(=O)CCOCCC(=O)N2CCN(CC[C@H](CSc3ccccc3)Nc3ccc(S(=O)(=O)NC(=O)c4ccc(N5CCN(CC6=C(c7ccc(Cl)cc7)CCC(C)(C)C6)CC5)cc4)cc3S(=O)(=O)C(F)(F)F)CC2)C(C)(C)C)cc1
24	inactive	97	–	–	Cc1ncsc1-c1ccc([C@H](C)NC(=O)[C@@H]2C[C@@H](O)CN2C(=O)[C@@H](NC(=O)COCCOCCN(C)CC[C@H](CSc2ccccc2)Nc2ccc(S(=O)(=O)NC(=O)c3ccc(N4CCN(CC5=C(c6ccc(Cl)cc6)CCC(C)(C)C5)CC4)cc3)cc2S(=O)(=O)C(F)(F)F)C(C)(C)C)cc1
61	inactive	130	–	–	Cc1ncsc1-c1ccc([C@H](C)NC(=O)[C@@H]2C[C@@H](O)CN2C(=O)[C@@H](NC(=O)CCCCN2CCN(CC[C@H](CSc3ccccc3)Nc3ccc(S(=O)(=O)NC(=O)c4ccc(N5CCN(CC6=C(c7ccc(Cl)cc7)CCC(C)(C)C6)CC5)cc4)cc3S(=O)(=O)C(F)(F)F)CC2)C(C)(C)C)cc1
62	inactive	1060	–	–	Cc1ncsc1-c1ccc([C@H](C)NC(=O)[C@@H]2C[C@@H](O)CN2C(=O)[C@@H](NC(=O)CCCCCCCCCN(C)CC[C@H](CSc2ccccc2)Nc2ccc(S(=O)(=O)NC(=O)c3ccc(N4CCN(CC5=C(c6ccc(Cl)cc6)CCC(C)(C)C5)CC4)cc3)cc2S(=O)(=O)C(F)(F)F)C(C)(C)C)cc1
48	inactive	232	–	–	Cc1ncsc1-c1ccc([C@H](C)NC(=O)[C@@H]2C[C@@H](O)CN2C(=O)[C@@H](NC(=O)COCCCOCC(=O)N2CCN(CC[C@H](CSc3ccccc3)Nc3ccc(S(=O)(=O)NC(=O)c4ccc(N5CCN(CC6=C(c7ccc(Cl)cc7)CCC(C)(C)C6)CC5)cc4)cc3S(=O)(=O)C(F)(F)F)CC2)C(C)(C)C)cc1
82	inactive	> 2000	–	–	Cc1ncsc1-c1ccc([C@H](C)NC(=O)[C@@H]2C[C@@H](O)CN2C(=O)[C@@H](NC(=O)CCCC(=O)N2CCN(CC[C@H](CSc3ccccc3)Nc3ccc(S(=O)(=O)NC(=O)c4ccc(N5CCN(CC6=C(c7ccc(Cl)cc7)CCC(C)(C)C6)CC5)cc4)cc3S(=O)(=O)C(F)(F)F)CC2)C(C)(C)C)cc1
62	inactive	94.5	–	–	Cc1ncsc1-c1ccc([C@H](C)NC(=O)[C@@H]2C[C@@H](O)CN2C(=O)[C@@H](NC(=O)CCCCCCN2CCN(CC[C@H](CSc3ccccc3)Nc3ccc(S(=O)(=O)NC(=O)c4ccc(N5CCN(CC6=C(c7ccc(Cl)cc7)CCC(C)(C)C6)CC5)cc4)cc3S(=O)(=O)C(F)(F)F)CC2)C(C)(C)C)cc1
96	inactive	> 2000	–	–	Cc1ncsc1-c1ccc([C@H](C)NC(=O)[C@@H]2C[C@@H](O)CN2C(=O)[C@@H](NC(=O)CC(=O)N2CCN(CC[C@H](CSc3ccccc3)Nc3ccc(S(=O)(=O)NC(=O)c4ccc(N5CCN(CC6=C(c7ccc(Cl)cc7)CCC(C)(C)C6)CC5)cc4)cc3S(=O)(=O)C(F)(F)F)CC2)C(C)(C)C)cc1
72	inactive	151	–	–	Cc1ncsc1-c1ccc([C@H](C)NC(=O)[C@@H]2C[C@@H](O)CN2C(=O)[C@@H](NC(=O)CCOCCN2CCN(CC[C@H](CSc3ccccc3)Nc3ccc(S(=O)(=O)NC(=O)c4ccc(N5CCN(CC6=C(c7ccc(Cl)cc7)CCC(C)(C)C6)CC5)cc4)cc3S(=O)(=O)C(F)(F)F)CC2)C(C)(C)C)cc1
78	inactive	181	–	–	Cc1ncsc1-c1ccc([C@H](C)NC(=O)[C@@H]2C[C@@H](O)CN2C(=O)[C@@H](NC(=O)CCCCCCCN2CCN(CC[C@H](CSc3ccccc3)Nc3ccc(S(=O)(=O)NC(=O)c4ccc(N5CCN(CC6=C(c7ccc(Cl)cc7)CCC(C)(C)C6)CC5)cc4)cc3S(=O)(=O)C(F)(F)F)CC2)C(C)(C)C)cc1
52	inactive	467	–	–	Cc1ncsc1-c1ccc([C@H](C)NC(=O)[C@@H]2C[C@@H](O)CN2C(=O)[C@@H](NC(=O)CCCCC(=O)N2CCN(CC[C@H](CSc3ccccc3)Nc3ccc(S(=O)(=O)NC(=O)c4ccc(N5CCN(CC6=C(c7ccc(Cl)cc7)CCC(C)(C)C6)CC5)cc4)cc3S(=O)(=O)C(F)(F)F)CC2)C(C)(C)C)cc1
–	–	769	inactive	67	CN(CC[C@H](CSc1ccccc1)Nc1ccc(S(=O)(=O)NC(=O)c2ccc(N3CCN(CC4=C(c5ccc(Cl)cc5)CCC(C)(C)C4)CC3)cc2)cc1S(=O)(=O)C(F)(F)F)C(=O)CCCn1cc(COCCOCCOCCNc2cccc3c2C(=O)N([C@@H]2CCC(=O)NC2=O)C3=O)nn1
–	–	346	inactive	81	CC1(C)CCC(c2ccc(Cl)cc2)=C(CN2CCN(c3ccc(C(=O)NS(=O)(=O)c4ccc(N[C@H](CCN5CCN(C(=O)CCCCNc6cccc7c6C(=O)N([C@@H]6CCC(=O)NC6=O)C7=O)CC5)CSc5ccccc5)c(S(=O)(=O)C(F)(F)F)c4)cc3)CC2)C1
33	inactive	200	–	–	Cc1ncsc1-c1ccc([C@H](C)NC(=O)[C@@H]2C[C@@H](O)CN2C(=O)[C@@H](NC(=O)COCCOCCOCCN(C)CC[C@H](CSc2ccccc2)Nc2ccc(S(=O)(=O)NC(=O)c3ccc(N4CCN(CC5=C(c6ccc(Cl)cc6)CCC(C)(C)C5)CC4)cc3)cc2S(=O)(=O)C(F)(F)F)C(C)(C)C)cc1
–	–	43	inactive	20	CC1(C)CCC(c2ccc(Cl)cc2)=C(CN2CCN(c3ccc(C(=O)NS(=O)(=O)c4ccc(N[C@H](CCN5CCN(CCCCNc6cccc7c6C(=O)N([C@@H]6CCC(=O)NC6=O)C7=O)CC5)CSc5ccccc5)c(S(=O)(=O)C(F)(F)F)c4)cc3)CC2)C1
75	inactive	1240	–	–	Cc1ncsc1-c1ccc([C@H](C)NC(=O)[C@@H]2C[C@@H](O)CN2C(=O)[C@@H](NC(=O)CCCCN(C)CC[C@H](CSc2ccccc2)Nc2ccc(S(=O)(=O)NC(=O)c3ccc(N4CCN(CC5=C(c6ccc(Cl)cc6)CCC(C)(C)C5)CC4)cc3)cc2S(=O)(=O)C(F)(F)F)C(C)(C)C)cc1
92	inactive	> 2000	–	–	Cc1ncsc1-c1ccc([C@H](C)NC(=O)[C@@H]2C[C@@H](O)CN2C(=O)[C@@H](NC(=O)CCC(=O)N2CCN(CC[C@H](CSc3ccccc3)Nc3ccc(S(=O)(=O)NC(=O)c4ccc(N5CCN(CC6=C(c7ccc(Cl)cc7)CCC(C)(C)C6)CC5)cc4)cc3S(=O)(=O)C(F)(F)F)CC2)C(C)(C)C)cc1
78	inactive	> 2000	–	–	Cc1ncsc1-c1ccc([C@H](C)NC(=O)[C@@H]2C[C@@H](O)CN2C(=O)[C@@H](NC(=O)CCCCCC(=O)N(C)CC[C@H](CSc2ccccc2)Nc2ccc(S(=O)(=O)NC(=O)c3ccc(N4CCN(CC5=C(c6ccc(Cl)cc6)CCC(C)(C)C5)CC4)cc3)cc2S(=O)(=O)C(F)(F)F)C(C)(C)C)cc1
–	–	722	inactive	76	CC1(C)CCC(c2ccc(Cl)cc2)=C(CN2CCN(c3ccc(C(=O)NS(=O)(=O)c4ccc(N[C@H](CCN5CCN(C(=S)NCCOCCOCCNc6cccc7c6C(=O)N([C@@H]6CCC(=O)NC6=O)C7=O)CC5)CSc5ccccc5)c(S(=O)(=O)C(F)(F)F)c4)cc3)CC2)C1 (racemic)
49	inactive	139	–	–	Cc1ncsc1-c1ccc([C@H](C)NC(=O)[C@@H]2C[C@@H](O)CN2C(=O)[C@@H](NC(=O)CCCCCCCCN(C)CC[C@H](CSc2ccccc2)Nc2ccc(S(=O)(=O)NC(=O)c3ccc(N4CCN(CC5=C(c6ccc(Cl)cc6)CCC(C)(C)C5)CC4)cc3)cc2S(=O)(=O)C(F)(F)F)C(C)(C)C)cc1
–	–	118	inactive	27	CC1(C)CCC(c2ccc(Cl)cc2)=C(CN2CCN(c3ccc(C(=O)NS(=O)(=O)c4ccc(N[C@H](CCN5CCN(C(=O)NCCOCCOCCNc6cccc7c6C(=O)N([C@@H]6CCC(=O)NC6=O)C7=O)CC5)CSc5ccccc5)c(S(=O)(=O)C(F)(F)F)c4)cc3)CC2)C1
